Counter-ions that a name gives are not always drawn. Some results are limits rather than exact numbers.

Usually melting point stands for the temperature, or range, at which the solid turns liquid.

Sequence of NR1A/2A NMDA receptor (Q00959 20-1464 limits assumed, other chains not shown): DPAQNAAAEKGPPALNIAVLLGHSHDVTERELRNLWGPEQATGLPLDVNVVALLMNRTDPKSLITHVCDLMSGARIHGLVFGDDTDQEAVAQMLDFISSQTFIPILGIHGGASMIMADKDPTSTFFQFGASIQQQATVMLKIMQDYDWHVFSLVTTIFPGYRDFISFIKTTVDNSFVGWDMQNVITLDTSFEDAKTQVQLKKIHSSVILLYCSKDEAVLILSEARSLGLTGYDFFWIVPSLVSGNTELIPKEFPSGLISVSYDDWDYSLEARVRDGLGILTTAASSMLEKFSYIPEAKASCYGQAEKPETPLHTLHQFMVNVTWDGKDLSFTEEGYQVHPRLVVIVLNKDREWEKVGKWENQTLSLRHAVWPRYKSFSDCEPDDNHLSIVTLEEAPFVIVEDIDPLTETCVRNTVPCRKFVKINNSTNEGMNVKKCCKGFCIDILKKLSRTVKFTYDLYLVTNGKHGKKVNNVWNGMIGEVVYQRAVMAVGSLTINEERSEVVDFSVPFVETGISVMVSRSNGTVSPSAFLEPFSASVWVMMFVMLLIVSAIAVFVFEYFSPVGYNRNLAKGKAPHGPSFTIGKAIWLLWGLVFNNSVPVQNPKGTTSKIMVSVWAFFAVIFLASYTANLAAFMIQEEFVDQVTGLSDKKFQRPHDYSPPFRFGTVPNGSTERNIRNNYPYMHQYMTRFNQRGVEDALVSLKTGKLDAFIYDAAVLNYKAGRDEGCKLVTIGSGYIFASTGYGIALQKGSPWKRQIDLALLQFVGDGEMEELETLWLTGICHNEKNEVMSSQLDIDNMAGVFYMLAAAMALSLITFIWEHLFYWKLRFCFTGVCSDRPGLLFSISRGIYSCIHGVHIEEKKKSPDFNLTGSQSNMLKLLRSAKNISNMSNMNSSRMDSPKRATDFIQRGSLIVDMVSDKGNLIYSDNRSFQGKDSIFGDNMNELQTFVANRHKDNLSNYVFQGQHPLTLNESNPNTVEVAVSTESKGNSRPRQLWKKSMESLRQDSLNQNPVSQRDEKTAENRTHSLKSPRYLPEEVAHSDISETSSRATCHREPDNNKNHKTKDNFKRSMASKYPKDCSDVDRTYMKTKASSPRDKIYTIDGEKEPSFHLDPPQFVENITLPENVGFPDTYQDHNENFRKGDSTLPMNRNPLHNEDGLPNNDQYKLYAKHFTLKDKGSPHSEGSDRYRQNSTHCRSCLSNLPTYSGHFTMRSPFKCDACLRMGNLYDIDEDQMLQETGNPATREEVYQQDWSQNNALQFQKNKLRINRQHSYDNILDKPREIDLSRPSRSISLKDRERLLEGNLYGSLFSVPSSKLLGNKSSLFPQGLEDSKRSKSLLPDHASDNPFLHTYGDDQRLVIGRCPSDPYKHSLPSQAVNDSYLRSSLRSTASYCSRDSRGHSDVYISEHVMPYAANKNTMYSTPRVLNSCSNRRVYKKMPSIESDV
Sequence of NR1A/2B NMDA receptor (Q00960 27-1482, other chains not shown): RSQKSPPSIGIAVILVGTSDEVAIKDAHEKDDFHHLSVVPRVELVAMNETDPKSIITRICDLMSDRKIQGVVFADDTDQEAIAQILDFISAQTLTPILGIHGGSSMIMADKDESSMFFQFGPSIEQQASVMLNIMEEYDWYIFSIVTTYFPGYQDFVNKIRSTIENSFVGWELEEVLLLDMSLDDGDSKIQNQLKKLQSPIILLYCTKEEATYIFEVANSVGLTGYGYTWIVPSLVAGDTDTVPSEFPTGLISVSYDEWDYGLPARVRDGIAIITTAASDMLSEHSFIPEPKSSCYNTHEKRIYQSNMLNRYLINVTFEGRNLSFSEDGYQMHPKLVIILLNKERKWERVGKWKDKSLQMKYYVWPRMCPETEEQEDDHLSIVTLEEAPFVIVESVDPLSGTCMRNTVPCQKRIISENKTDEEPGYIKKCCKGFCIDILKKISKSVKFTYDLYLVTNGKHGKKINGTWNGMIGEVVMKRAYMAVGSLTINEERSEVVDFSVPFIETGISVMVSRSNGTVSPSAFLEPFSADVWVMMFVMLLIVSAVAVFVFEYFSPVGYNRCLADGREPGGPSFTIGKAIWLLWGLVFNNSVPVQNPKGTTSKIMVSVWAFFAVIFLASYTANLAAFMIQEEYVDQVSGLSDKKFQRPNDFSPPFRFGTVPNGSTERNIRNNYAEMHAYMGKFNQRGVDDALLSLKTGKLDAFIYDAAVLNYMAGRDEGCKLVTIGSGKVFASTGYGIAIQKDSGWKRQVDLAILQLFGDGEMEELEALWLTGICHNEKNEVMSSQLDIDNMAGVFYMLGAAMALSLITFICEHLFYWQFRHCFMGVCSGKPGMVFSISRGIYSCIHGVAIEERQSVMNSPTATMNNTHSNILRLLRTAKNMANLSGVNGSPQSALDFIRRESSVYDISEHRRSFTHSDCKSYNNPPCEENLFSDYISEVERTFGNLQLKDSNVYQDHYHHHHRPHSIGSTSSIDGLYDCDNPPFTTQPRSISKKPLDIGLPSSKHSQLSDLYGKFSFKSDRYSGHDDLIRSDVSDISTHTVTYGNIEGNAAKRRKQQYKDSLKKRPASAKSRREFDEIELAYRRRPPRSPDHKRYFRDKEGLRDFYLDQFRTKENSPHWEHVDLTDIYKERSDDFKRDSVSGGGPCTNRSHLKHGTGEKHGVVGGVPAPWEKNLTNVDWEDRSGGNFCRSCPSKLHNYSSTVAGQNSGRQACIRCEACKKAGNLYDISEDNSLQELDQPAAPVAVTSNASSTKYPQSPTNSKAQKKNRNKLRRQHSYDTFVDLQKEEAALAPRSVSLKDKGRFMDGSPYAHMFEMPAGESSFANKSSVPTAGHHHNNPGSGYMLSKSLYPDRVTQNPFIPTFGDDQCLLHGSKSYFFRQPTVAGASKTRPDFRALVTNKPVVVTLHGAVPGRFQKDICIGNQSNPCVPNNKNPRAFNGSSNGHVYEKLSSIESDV
Sequence of NR1A/2C NMDA receptor (Q00961 20-1237, other chains not shown): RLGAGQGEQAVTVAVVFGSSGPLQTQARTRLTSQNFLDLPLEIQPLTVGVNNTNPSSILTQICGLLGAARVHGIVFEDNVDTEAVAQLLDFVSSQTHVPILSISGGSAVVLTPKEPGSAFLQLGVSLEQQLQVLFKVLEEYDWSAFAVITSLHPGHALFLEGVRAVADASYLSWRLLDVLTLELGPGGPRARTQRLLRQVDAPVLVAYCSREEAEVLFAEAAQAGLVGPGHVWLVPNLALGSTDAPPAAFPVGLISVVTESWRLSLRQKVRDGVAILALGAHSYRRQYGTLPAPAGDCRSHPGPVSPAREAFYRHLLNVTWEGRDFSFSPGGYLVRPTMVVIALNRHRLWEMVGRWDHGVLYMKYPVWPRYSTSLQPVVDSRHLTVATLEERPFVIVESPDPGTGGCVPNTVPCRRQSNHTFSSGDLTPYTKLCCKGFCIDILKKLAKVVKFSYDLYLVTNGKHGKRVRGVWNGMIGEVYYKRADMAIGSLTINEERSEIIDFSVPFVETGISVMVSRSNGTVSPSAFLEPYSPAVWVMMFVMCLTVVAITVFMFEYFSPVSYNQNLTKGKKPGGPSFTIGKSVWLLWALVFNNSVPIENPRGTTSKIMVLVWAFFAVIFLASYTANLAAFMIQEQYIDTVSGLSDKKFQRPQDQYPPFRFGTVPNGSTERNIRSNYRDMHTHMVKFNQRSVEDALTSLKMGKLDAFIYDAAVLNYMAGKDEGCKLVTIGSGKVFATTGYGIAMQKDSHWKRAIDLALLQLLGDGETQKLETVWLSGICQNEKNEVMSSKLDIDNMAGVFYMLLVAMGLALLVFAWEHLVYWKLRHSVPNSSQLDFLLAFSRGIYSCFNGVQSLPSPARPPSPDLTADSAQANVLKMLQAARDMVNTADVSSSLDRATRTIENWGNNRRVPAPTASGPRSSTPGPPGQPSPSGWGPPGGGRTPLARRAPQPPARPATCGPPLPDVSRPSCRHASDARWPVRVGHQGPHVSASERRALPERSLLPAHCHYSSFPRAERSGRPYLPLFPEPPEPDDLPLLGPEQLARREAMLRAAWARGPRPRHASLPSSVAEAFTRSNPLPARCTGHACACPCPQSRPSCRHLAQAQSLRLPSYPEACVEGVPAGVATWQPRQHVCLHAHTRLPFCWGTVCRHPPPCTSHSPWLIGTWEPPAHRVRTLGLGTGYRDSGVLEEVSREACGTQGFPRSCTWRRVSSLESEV

The target of the first data set is NR1A/2A NMDA receptor (Rattus norvegicus, UniProt P35439+Q00959). Briefly: Xenopus oocyte expression system, two-electrode voltage clamp, NR1A/2A. In kind it is cell-based. The settings on record: cloned NR1A/2A subunits expressed in Xenopus oocytes; inhibition of agonist-evoked membrane current; read-out: 1A/2A IC50. The source says:
(§1) Electrophysiological assays may be utilized to characterize the actions of potential subtype-selective ligands at NMDA receptors expressed in Xenopus oocytes. The ligand may be assayed at the different subunit combinations of cloned rat NMDA receptors corresponding to the four putative NMDA receptor subtypes (Moriyoshi et al., Nature (Lond.) 354:31-37 (1991); Monyer et al., Science (Washington, D.C.) 256:1217-1221 (1992); Kutsuwada et al., Nature (Lond.) 358:36-41 (1992); Sugihara et al., Biochem. Biophys. Res. Comm. 185:826-832 (1992)).
(§2) Using fixed saturating concentrations of agonists (glutamate 100 μM, glycine 1-10 μM depending on subunit combination), the inhibitory potency of a putative subtype-selective ligand may be assayed at the NMDA receptors assembled from NR1A/2A, NR1A/2B, NR1A/2C and NR1A/2D subunit combinations.
(§3) The Xenopus oocyte expression system. Mature female Xenopus laevis were anaesthetized (20-40 min) using 0.15% 3-aminobenzoic acid ethyl ester (MS-222) and 2-4 ovarian lobes were surgically removed. Oocytes at developmental stages IV-VI (Dumont, J. N., J. Morphol. 136:153-180 (1972)), were dissected from the ovary still surrounded by enveloping ovarian tissues. Follicle-enclosed oocytes were micro-injected with 1:1 mixtures of cRNA:NR1A+NR2A, 2B, 2C or 2D; injecting ˜2, 5, or 20 ng of RNA encoding each receptor subunit. NR1A encoding cRNA was injected alone at ˜20 ng. Oocytes were stored in Barth's medium containing (in mM): NaCl, 88; KCl, 1; CaCl2, 0.41; Ca(NO3)2, 0.33; MgSO4, 0.82; NaHCO3, 2.4; HEPES 5; pH 7.4, with 0.1 mg/mL gentamycin sulphate. While oocytes were still surrounded by enveloping ovarian tissues the Barth's medium was supplemented with 0.1% bovine serum. Oocytes were defolliculated 1-2 days following injections by treatment with collagenase (0.5 mg/mL Sigma Type I for 0.5-1 hr) (Miledi and Woodward, J. Physiol. (Lond.) 416:601-621 (1989)) and subsequently stored in serum-free medium.
(§4) Electrical recordings were made using a conventional two-electrode voltage clamp (Dagan TEV-200) over periods ranging between 3-21 days following injection. Oocytes were placed in a 0.1 mL recording chamber continuously perfused (5-15 mL min^−1) with frog Ringer's solution containing (in mM): NaCl, 115; KCl, 2; CaCl2, 1.8; HEPES, 5; pH 7.4. Drugs were applied by bath perfusion. When using the more rapid flow rates, half-times for mid-chamber solution changes were between 2-3 sec, however, exchange rates for drug solutions at the oocyte surface (i.e. beneath the vitelline envelope and among the tangles of microvilli) were probably considerably longer (Woodward et al., Mol. Pharmacol. 41:89-103 (1992)). Zero-Ca^2+/Ba^2+ Ringer had the composition (in mM): NaCl, 115; KCl, 2; BaCl2, 1.8; HEPES, 5; pH 7.4. Intraoocyte injections were made by pneumatic pressure-pulse ejection from micropipettes (Miledi and Parker, J. Physiol. (Lond.) 357:173-183 (1984)). Injection solutions of EGTA (40-400 mM) and BAPTA (50-500 mM) were made up in H2O, pH adjusted to 7.4 with KOH or HCl, and filtered to minimize plugging (Acrodisc-13, […]). Pressure was set between 200-400 kPa. The volume of injections was regulated by adjusting the time of pulses (0.1-1 sec) and was estimated by measuring the diameters of ejected droplets.
(§5) Concentration-inhibition curves were fit with equation 2.
(§6) I/Icontrol=1/(1+([antagonist]/10^−pIC50)^n) Eq. 2
(§7) in which Icontrol is the current evoked by agonists alone, pIC50=−log IC50, […] is the concentration of antagonist that produces half maximal inhibition, and n is the slope factor. For incomplete curves analysis by fitting was unreliable and IC50 values were calculated by simple regression over linear portions of the curves (Origin: Microcal Software).
(§8) Drugs were initially dissolved at concentrations of 10-100 mM in DMSO. Dilutions were then made to generate a series of DMSO stock solutions over the range 10 μM to 100 mM. Working solutions were made by 1000-3000 fold dilution of stocks into Ringer. […]
(Two-electrode voltage clamp holds a large cell at a set potential and records current.)
Turning to `O=c1[nH]c2ccc(OCCCN3CCc4ccccc4C3)cc2[nH]1` [Ex. 108, N-(3-(2-oxobenzimidazol-5-oxy)propyl)-1,2,3,4-tetrahydroisoquinoline], the IC50 was 24 µM.
For `O=c1[nH]c2ccc(OCCN3CCc4ccccc4C3)cc2[nH]1` [Ex. 109, N-(2-(2-oxobenzimidazol-5-oxy)ethyl)-1,2,3,4-tetrahydroisoquinoline], the IC50 amounted to 190 µM.

The next data set addresses NR1A/2B NMDA receptor (Rattus norvegicus, UniProt P35439+Q00960). The experiment in a line: Xenopus oocyte expression system, two-electrode voltage clamp, NR1A/2B. In kind it is cell-based. As to conditions: cloned NR1A/2B subunits expressed in Xenopus oocytes; inhibition of agonist-evoked membrane current; read-out: 1A/2B IC50.
Text: as §1, §2, §3, §4, §5, §6, §7, §8
For the compound `O=c1[nH]c2ccc(OCCCN3CCc4ccccc4C3)cc2[nH]1` [Ex. 108, N-(3-(2-oxobenzimidazol-5-oxy)propyl)-1,2,3,4-tetrahydroisoquinoline], the IC50 worked out at 7.5 µM.
Still for that read-out and setting: in the case of `O=c1[nH]c2ccc(OCCN3CCc4ccccc4C3)cc2[nH]1` [Ex. 109, N-(2-(2-oxobenzimidazol-5-oxy)ethyl)-1,2,3,4-tetrahydroisoquinoline] it was 140 µM.

The next data set has as its target NR1A/2C NMDA receptor (Rattus norvegicus, UniProt P35439+Q00961). Briefly: Xenopus oocyte expression system, two-electrode voltage clamp, NR1A/2C. In kind it is cell-based. The settings on record: cloned NR1A/2C subunits expressed in Xenopus oocytes; inhibition of agonist-evoked membrane current; read-out: 1A/2C IC50.
Text: as §1, §2, §3, §4, §5, §6, §7, §8
As for `O=c1[nH]c2ccc(OCCCN3CCc4ccccc4C3)cc2[nH]1` [Ex. 108, N-(3-(2-oxobenzimidazol-5-oxy)propyl)-1,2,3,4-tetrahydroisoquinoline], the IC50 is over 300 µM.
Same read-out and setting: in the case of `O=c1[nH]c2ccc(OCCN3CCc4ccccc4C3)cc2[nH]1` [Ex. 109, N-(2-(2-oxobenzimidazol-5-oxy)ethyl)-1,2,3,4-tetrahydroisoquinoline] it was over 300 µM.

System in a further data set: not given
Assay: not given
Details: not given
With `O=C(CCCN1CCc2c([nH]c3ccccc23)C1)c1ccc(F)cc1`, the melting point fell in the range of 188 to 190 °C.
`Br.c1ccc(CC2CCCN(CCCOc3ccccc3)C2)cc1` (centres unmarked) yielded a melting point of 148 to 149 °C.
For `Br.c1ccc(CC2CCCN(CCOc3ccccc3)C2)cc1` (centres unmarked), the melting point fell in the range of 93 to 94 °C.
Still for that read-out and setting: next, `Br.c1ccc(CCCCN2CCCC(Cc3ccccc3)C2)cc1` (centres unmarked): 105 to 107 °C; `Br.c1ccc(CCN2CCCC(Cc3ccccc3)C2)cc1` (centres unmarked): 137 to 142 °C.
`Br.FC(F)(F)c1cccc(CCN2CCCC(Cc3ccccc3)C2)c1` (centres unmarked): the melting point lay in the range of 152 to 154 °C.
The same measure, in the same setting: in the case of `Br.Clc1ccc(CCN2CCCC(Cc3ccccc3)C2)cc1` (centres unmarked) it was 143 to 145 °C.
Turning to `Br.COc1ccc(CCN2CCCC(Cc3ccccc3)C2)cc1` (centres unmarked), the melting point is 74 to 78 °C.
For the compound `Cl.O=C(c1ccc(F)cc1)C1CCN(CCOc2ccc(F)cc2)CC1`, the melting point fell in the range of 138 to 141 °C.
Take `OCCCN1CCC(Cc2ccccc2)CC1` (as salt: hydrobromid) [Ex. 83, 4-Benzyl-1-(3-hydroxypropyl)piperidine hydrobromide]: the melting point lay in the range of 122 to 124 °C.
On the same count and under the same terms, next, `OCCCCN1CCC(Cc2ccccc2)CC1` (as salt: hydrobromid) [Ex. 86, 4-Benzyl-1-(4-hydroxybutyl)piperidine hydrobromide]: 129 to 130 °C; `OCCCN1CCC(Cc2ccc(Cl)cc2)CC1` (as salt: hydrobromid) [Ex. 89, 4-(4-Chlorobenzyl)-1-(3-hydroxypropyl) piperidine hydrobromide]: 139.5 to 140 °C; `OCCCN1CCC(Cc2ccc(F)cc2)CC1` (as salt: hydrobromid) [Ex. 90, 4-(4-Fluorobenzyl)-1-(3-hydroxypropyl) piperidine hydrobromide]: 108 to 110 °C.
Compound `COc1ccc(CC2CCN(CCCO)CC2)cc1` (as salt: hydrobromid) [Ex. 93, 1-(3-Hydroxypropyl)-4-(4-methoxybenzyl) piperidine hydrobromide] yielded a melting point of 129 to 131 °C.
The same measure, in the same setting: in the case of `COc1ccc(C(=O)C2CCN(CCCO)CC2)cc1` (as salt: hydrobromid) [Example 78, 1-(3-Hydroxypropyl)-4-(4-methoxybenzoyl)piperidine] it was 148 to 151 °C; in that of `OC1(Cc2ccccc2)CCN(CCCc2ccccc2)CC1` (as salt: hydrochloride) [Ex. 16, 4-Benzyl-4-hydroxy-1-(3-phenylpropyl)piperidine], 156 to 157 °C.
Consider `c1ccc(OCCN2CCc3ccccc3C2)cc1` (as salt: hydrochloride) [Ex. 18, N-(2-Phenoxyethyl)-1,2,3,4-tetrahydroisoquinoline], for which the melting point was 181 to 182 °C.
In the case of `c1ccc(OCCCN2CCc3ccccc3C2)cc1` (as salt: hydrochloride) [Ex. 19, N-(3-Phenoxypropyl)-1,2,3,4-tetrahydroisoquinoline], the melting point was 194 to 195 °C.
Turning to `O=C(c1ccccc1)C1CCN(CCOc2ccccc2)CC1` (as salt: hydrochloride) [Ex. 27, 4-Benzoyl-1-(2-phenoxyethyl)piperidine], the melting point was 161 to 162 °C.
For the compound `CC(O)CCN1CCC(Cc2ccc(F)cc2)CC1` (centres unmarked) (as salt: hydrochloride) [Ex. 91, 4-(4-Fluorobenzyl)-1-(3-hydroxybutyl) piperidine hydrochloride], the melting point lay in the range of 99 to 103 °C.

The record behind these values is patent US6534522B2, “Subtype-selective NMDA receptor ligands and the use thereof” (Warner-Lambert Company, priority 1995, dated 2003).
